Reference: US12583852B2, “Heterocycle derivative” (JW PHARMACEUTICAL CORPORATION, priority 2018, dated 2026)

test system: human dermal papilla cells; test: Promotion of proliferation of human dermal papilla cells (CellTiter-Glo Luminescent cell viability assay); format: cell-based; conditions: human dermal papilla cells (ScienCell, 2499); drug 0 to 30 μM; 48 hours; CellTiter-Glo luminescence; compared to DMSO-treated control group
Protocol: The effect of promoting cell proliferation by the drug was analyzed using human dermal papilla cells (ScienCell, 2499). Human dermal papilla cells cultured using Mesenchymal Stem Cell Medium (ScienCell, 7501) medium were seeded at a density of 3×10^3 cells/well and in a volume of 100 μl in a 96-well plate, incubated overnight at 37° C. and 5% CO2, treated with the drug at different concentrations ranging from 0 to 30 μM in a volume of 100 μL, and incubated at 37° C. and 5% CO2 for 48 hours. CellTiter-Glo Luminescent cell viability assay was performed according to the manufacturer's protocol (Promega, G7573) to detect cell proliferation. Luminescence was measured using an Envision 2102 multilabeled reader (PerkinElmer) equipment, and the cell proliferation rate was analyzed by the activity of the drug-treated group compared to the DMSO-treated group (control group), which is a solvent of the drug.

SMILES | Maximum DP cell proliferation (%)
Nc1n[nH]c2nc(Nc3cccc(C(F)(F)F)c3F)cnc12 [Compound 66, N6-[2-fluoro-3-(trifluoromethyl)phenyl]-1H-pyrazolo[3,4-b]pyrazine-3,6-diamine] | 25
Cc1c(Cl)cccc1Nc1nc2[nH]nc(N)c2cc1F [Compound 67, N6-(3-chloro-2-methylphenyl)-5-fluoro-1H-pyrazolo[3,4-b]pyridine-3,6-diamine] | 13
Nc1n[nH]c2nc(Nc3cc(C(F)(F)F)ccc3F)c(F)cc12 [Compound 68, 5-fluoro-N6-(2-fluoro-5-(trifluoromethyl)phenyl)-1H-pyrazolo[3,4-b]pyridine-3,6-diamine] | 4.5
Nc1n[nH]c2nc(Nc3ccc(C(F)(F)F)c(F)c3)c(F)cc12 [Compound 72, 5-fluoro-N6-[3-fluoro-4-(trifluoromethyl)phenyl]-1H-pyrazolo[3,4-b]pyridine-3,6-diamine] | 6.8
Nc1n[nH]c2nc(Nc3cc(F)cc(C(F)(F)F)c3F)c(F)cc12 [Compound 73, N6-[2,5-difluoro-3-(trifluoromethyl)phenyl]-5-fluoro-1H-pyrazolo[3,4-b]pyridine-3,6-diamine] | 14
Nc1n[nH]c2nc(Nc3ccc(Cl)c(C(F)F)c3)c(F)cc12 [Compound 75, N6-(4-chloro-3-(difluoromethyl)phenyl)-5-fluoro-1H-pyrazolo[3,4-b]pyridine-3,6-diamine] | 3
Cc1ccc(Cl)c(Nc2nc3[nH]nc(N)c3cc2F)c1F [Compound 76, N6-(6-chloro-2-fluoro-3-methylphenyl)-5-fluoro-1H-pyrazolo[3,4-b]pyridine-3,6-diamine] | 4
Nc1n[nH]c2nc(Nc3cccc(C(F)(F)F)c3Cl)c(F)cc12 [Compound 77, N6-(2-chloro-3-(trifluoromethyl)phenyl)-5-fluoro-1H-pyrazolo[3,4-b]pyridine-3,6-diamine] | 15
N#Cc1cccc(Nc2nc3[nH]nc(N)c3cc2F)c1F [Compound 79, 3-[(3-amino-5-fluoro-1H-pyrazolo[3,4-b]pyridin-6-yl)amino]-2-fluoro-benzonitrile] | 3.6
Nc1n[nH]c2nc(Nc3ccc(F)c(C(F)(F)F)c3F)c(F)cc12 [Compound 80, N6-(2,4-difluoro-3-(trifluoromethyl)phenyl)-5-fluoro-1H-pyrazolo[3,4-b]pyridine-3,6-diamine] | 6
Cc1c(F)cccc1Nc1nc2[nH]nc(N)c2cc1F [Compound 82, 5-fluoro-N6-(3-fluoro-2-methylphenyl)-1H-pyrazolo[3,4-b]pyridine-3,6-diamine] | 14
Cc1nc(Nc2cccc3c2CCC3)nc2[nH]nc(N)c12 [Compound 84, N6-(2,3-dihydro-1H-inden-4-yl)-4-methyl-1H-pyrazolo[3,4-d]pyrimidine-3,6-diamine] | 7.4
Nc1n[nH]c2nc(Nc3cccc4c3CCC4(F)F)c(F)cc12 [Compound 85, N6-(1,1-difluoro-2,3-dihydro-1H-inden-4-yl)-5-fluoro-1H-pyrazolo[3,4-b]pyridine-3,6-diamine] | 15
CC(=O)n1nc(N)c2cc(F)c(Nc3cccc4c3CCC4)nc21 [Compound 88, 1-(3-amino-6-((2,3-dihydro-1H-inden-4-yl)amino)-5-fluoro-1H-pyrazolo[3,4-b]pyridin-1-yl)ethan-1-one] | 8
O=C(Nc1n[nH]c2nc(Nc3cccc4c3CCC4)c(F)cc12)C1CCCC1 [Compound 89, N-(6-((2,3-dihydro-1H-inden-4-yl)amino)-5-fluoro-1H-pyrazolo[3,4-b]pyridin-3-yl)cyclopentanecarboxamide] | 0.4
Cn1nc(N)c2cc(F)c(Nc3cccc4c3CCC4)nc21 [Compound 90, N6-(2,3-dihydro-1H-inden-4-yl)-5-fluoro-1-methyl-1H-pyrazolo[3,4-b]pyridine-3,6-diamine] | 13
O=C(Nc1n[nH]c2nc(Nc3cccc4c3CCC4)c(F)cc12)c1ccncc1 [Compound 91, N-(6-((2,3-dihydro-1H-inden-4-yl)amino)-5-fluoro-1H-pyrazolo[3,4-b]pyridin-3-yl)isonicotinamide] | 6.4
CC(=O)Nc1n[nH]c2nc(Nc3cccc4c3CCC4)c(F)cc12 [Compound 92, N-(6-((2,3-dihydro-1H-inden-4-yl)amino)-5-fluoro-1H-pyrazolo[3,4-b]pyridin-3-yl)acetamide] | 8
Nc1nn(Cc2ccccc2)c2nc(Nc3cccc4c3CCC4)c(F)cc12 [Compound 93, 1-benzyl-N6-(2,3-dihydro-1H-inden-4-yl)-5-fluoro-1H-pyrazolo[3,4-b]pyridine-3,6-diamine] | 2.8
CC(=O)Cn1nc(N)c2cc(F)c(Nc3cccc4c3CCC4)nc21 [Compound 94, 1-(3-amino-6-((2,3-dihydro-1H-inden-4-yl)amino)-5-fluoro-1H-pyrazolo[3,4-b]pyridin-1-yl)propan-2-one] | 18
CN(C)CCn1nc(N)c2cc(F)c(Nc3cccc4c3CCC4)nc21 [Compound 96, N6-(2,3-dihydro-1H-inden-4-yl)-1-(2-(dimethylamino)ethyl)-5-fluoro-1H-pyrazolo[3,4-b]pyridine-3,6-diamine] | 1.2
O=C1c2ccccc2C(=O)N1c1nn(C2CCCCO2)c2nc(Nc3cccc4c3CCC4)c(F)cc12 (stereo not shown) [Compound 97, 2-(6-((2,3-dihydro-1H-inden-4-yl)amino)-5-fluoro-1-(tetrahydro-2H-pyran-2-yl)-1H-pyrazolo[3,4-b]pyridin-3-yl)isoindoline-1,3-dione] | 10
Nc1nn(CC(=O)c2ccccc2)c2nc(Nc3cccc4c3CCC4)c(F)cc12 [Compound 100, 2-(3-amino-6-((2,3-dihydro-1H-inden-4-yl)amino)-5-fluoro-1H-pyrazolo[3,4-b]pyridin-1-yl)-1-phenylethan-1-one] | 0.8
COC(=O)CNc1n[nH]c2nc(Nc3cccc4c3CCC4)c(F)cc12 [Compound 101, methyl (6-((2,3-dihydro-1H-inden-4-yl)amino)-5-fluoro-1H-pyrazolo[3,4-b]pyridin-3-yl)glycinate] | 9.7
CNc1n[nH]c2nc(Nc3cccc4c3CCC4)c(F)cc12 [Compound 102, 5-fluoro-N6-indan-4-yl-N3-methyl-1H-pyrazolo[3,4-b]pyridine-3,6-diamine] | 13
Fc1cc2cn[nH]c2nc1Nc1cccc2c1CCC2 [Compound 104, N-(2,3-dihydro-1H-inden-4-yl)-5-fluoro-1H-pyrazolo[3,4-b]pyridin-6-amine] | 15
CN(C)c1n[nH]c2nc(Nc3cccc4c3CCC4)c(F)cc12 [Example 105, N6-(2,3-dihydro-1H-inden-4-yl)-5-fluoro-N3,N3-dimethyl-1H-pyrazolo[3,4-b]pyridine-3,6-diamine] | 12
CS(=O)(=O)Nc1n[nH]c2nc(Nc3cccc4c3CCC4)c(F)cc12 [Example 106, N-(6-((2,3-dihydro-1H-inden-4-yl)amino)-5-fluoro-1H-pyrazolo[3,4-b]pyridin-3-yl)methanesulfonamide] | 4.8
